Key:
[1] = system: rotavirus infection in MA-104 cells; conditions: cited from earlier work
rotavirus = conditions: pediatric patients; 3 day course; 7.5 mg/kg suspension; cited from earlier work
AGS cells [2] = experiment: Proliferation assay (ALAMARBLUE) of egg and/or colostrum, Example 8A; format: cell-based, human
Description: Cell proliferation assays were performed as previously described, utilising ALAMARBLUETM (Invitrogen, Paisley, UK), (Marchbank et al., Am J Physiol Gastrointest Liver Physiol. 2009; 296:[…]-703) as per manufacturer's instructions. Briefly, cells were seeded at 2000 cells/well, grown in medium and 10% FCS in 96 well plates overnight. The following day, cells were washed with medium alone and incubated in medium alone (negative control), medium containing epidermal growth factor (EGF, 1 μg/ml, positive control) or egg and colostrum combination. BSA was added to additional wells as a further negative control. Data are expressed as % positive control where the rise in proliferation (increase in A570 above baseline) caused by […] of EGF was defined as 100%. Whole powdered egg and colostrum (0.25-4 mg/ml) was added to cells and effect on proliferation and cell migration analysed. Additional studies compared “pure” yolk and egg white powder (1 mg powder/ml) along with separated yolk and white from fresh eggs (added at same protein concentration as equivalent powder) and also compared uncooked egg powder and whole fresh egg that had been heated to 100° C. for 8 minutes (samples placed in 50 ml falcon tube in waterbath, followed by homogenisation) prior to addition to cells. […] This 40:60 proportion was used to reproduce the product currently commercially available and used in trials of infectious diarrhoea. Gaensbauer et al. BMJ Glob Health. 2017; 2:e000452. The importance of the EGFR and TGFβ in mediating proliferative and migratory effects was examined by adding whole egg powder (1 mg/ml, w/v) to cells in the presence and absence of tyrphostin (100 nM) and a TGFβ ([…]) neutralising antibody (antibodies-online.com, Aachen, Germany). Additional samples examined the effect of pure ovomucoid (25-100 μg/ml) and ovalbumin (50-400 μg/ml) on proliferation and migration. To further examine the contribution of ovomucoid and ovalbumin in mediating the proliferative and migratory activity seen using whole egg powder, further wells had egg powder added (1 mg/ml) in the presence of anti-ovomucoid and ovalbumin antibodies (Generon, Slough, Berkshire, UK) at 1 μg/ml.

AGS cells [3] = experiment: Cell migration assay (wounded monolayers) of egg and/or colostrum, Example 8A; format: cell-based, human; conditions: purified protein
Description: Cell migration assays were performed using our previously published methods. Marchbank et al., Am J Physiol Gastrointest Liver Physiol. 2009; 296:[…]-703. Briefly, confluent monolayers had standard wounds inflicted and serial photomicrographs taken. Twenty measurements per field were performed by placing a transparent grid over the photograph and measuring the distance moved from the original wound line. All results are expressed as mean (SEM) of four separate experiments. Whole powdered egg and colostrum (0.25-4 mg/ml) was added to cells and effect on proliferation and cell migration analysed. Additional studies compared “pure” yolk and egg white powder (1 mg powder/ml) along with separated yolk and white from fresh eggs (added at same protein concentration as equivalent powder) and also compared uncooked egg powder and whole fresh egg that had been heated to 100° C. for 8 minutes (samples placed in 50 ml falcon tube in waterbath, followed by homogenisation) prior to addition to cells. […] This 40:60 proportion was used to reproduce the product currently commercially available and used in trials of infectious diarrhoea. Gaensbauer et al. BMJ Glob Health. 2017; 2:e000452. […]

RIE cells = experiment: Cell proliferation assay in RIE cells; format: cell-based, rat; conditions: vs SFM, standard colostrum or ZnC
Description: Human gastrointestinal cells (AGS cells) or rat intestinal epithelial cells (RIE cells) are seeded at 2000 cells/well in an appropriate growth medium containing glutamine and 10% foetal calf serum in 96 well plates overnight. The following day, cells are washed twice with serum-free medium and then incubated in serum-free medium alone (SFM negative control) or also containing colostrum at various concentrations or epidermal growth factor (EGF, positive control) overnight. The following day ALAMARBLUE™ is added to each well. ALAMARBLUE™ is a coloured substrate that changes colour from blue to pink in response to cellular metabolic reduction. This change can be determined by reading the absorbance of the wells at 570 nm using a spectrophotometer at 0 h when the substrate is added and 4 hours later.

these cell lines = conditions: cited from earlier work

Molecule: O=c1cc(-c2ccc(O)c(O)c2)oc2cc(O)cc(O)c12 [luteolin]
- antiviral activity against rotavirus infection [1]: antiviral activity

Molecule: CC(=O)Oc1ccccc1C(=O)Nc1ncc([N+](=O)[O-])s1 [Nitazoxanide]
- duration of rotavirus disease (rotavirus): effective to reduce the duration of rotavirus disease

Molecule: ovalbumin: purified ovalbumin, 42 kDa egg white protein
- effect on proliferation and migration (AGS cells [2]; pure isolated ovalbumin at 400 µg/mL): major stimulatory effect
- cell proliferation dose-response, in words (AGS cells [2]; purified protein, 50-400 μg/ml): increasing activity up to the highest dose
- cell migration dose-response, in words (AGS cells [3]; 50-400 μg/ml): increasing activity up to the highest dose

Molecule: zinc carnosine
- cell proliferation (A570 nm), comparison in words (RIE cells): stimulate cell proliferation

Molecule: O=c1cc(-c2ccc(O)cc2)oc2cc(O[C@@H]3O[C@H](CO)[C@@H](O)[C@H](O)[C@H]3O)cc(O)c12 [apigenin 7-O-glucoside]
- antiviral activity against rotavirus infection [1]: antiviral activity

Molecule: soya bean trypsin inhibitor
- proliferation or migration (these cell lines): does not increase proliferation or migration

B1: ovomucoid: purified ovomucoid, 28 kDa egg white protein with trypsin inhibitor activity (protein, UniProt P01005 25-210, looked up)
Ovomucoid: AEVDCSRFPNATDKEGKDVLVCNKDLRPICGTDGVTYTNDCLLCAYSIEFGTNISKEHDGECKETVPMNCSSYANTTSEDGKVMVLCNRAFNPVCGTDGVTYDNECLLCAHKVEQGASVDKRHDGGCRKELAAVSVDCSEYPKPDCTAEDRPLCGSDNKTYGNKCNFCNAVVESNGTLTLSHFGKC
- share of total proliferative and migratory activity of whole egg (AGS cells [2]; from neutralising antibody studies): about 80%
- concentration of peak effect, cell proliferation (AGS cells [2]; purified protein, dose-response 25-100 μg/ml): 50 µg/mL
- concentration of peak effect, cell migration (AGS cells [3]; dose-response 25-100 μg/ml): 50 µg/mL

— patent US12263192B2, “Compositions for management of disorders of the gastrointestinal tract” (PanTheryx, Inc., priority 2019, dated 2025)
